Like-named read-outs stand apart in the source and are kept apart here.
Tests used:
[1] = start: crystal forms I-XII and amorphous form, cited from earlier work
[2] = Solubility of free state and salt forms in water by HPLC; type: physicochemical; conditions: stirred 2 h at 25° C., filtered
Procedure: HPLC solubility data were collected with Agilent 1260 high performance liquid chromatograph. The chromatographic column used was Poroshell 120 EC-C18 ([…]), the detection wavelength was 254 nm, column temperature for detection was 40° C., flow rate was 1.5 mL/min, and the sample volume was 5 μL. A sample was dissolved in mobile phase B to prepare a sample solution of a concentration about 0.45 mg/mL, and HPLC detection was performed according to the following gradient elution mode to obtain concentration in the sample.
Then samples were taken and filtered, and the concentrations were detected by HPLC. The solubility of the active ingredient in each of the samples in water was calculated.

[3] = Crystal form stability of free state in solvents (Comparative Example 1 of CN105315266A); type: physicochemical
Description: Identification, preparation, a composition and use of the compound represented by formula A are disclosed in patent document CN103450171A (which is incorporated herein by reference in its entirety). Specifically, a method for preparing the compound is disclosed in Example 2. 12 crystal forms of the compound represented by formula A are disclosed in patent document CN105315266A (which is incorporated herein by reference in its entirety).

[4] = Crystal form stability of salt forms as suspensions in solvents; conditions: for Crystal form after stirring suspension: room temperature
[5] = Crystal form storage stability, 30 days under conventional, high-temperature and accelerated conditions; type: physicochemical; conditions: 1 month under conventional, high-temperature (60° C.) and accelerated conditions (40° C.-75% relative humidity)
Procedure: The crystal form of the sulfate of the compound represented by formula A and the crystal form of the maleate of the compound represented by formula A according to the present application were taken to perform a stability experiment. Specific operation was as follows: 60 mg of the samples of the crystal form of the sulfate of the compound represented by formula A and the crystal form of the maleate of the compound represented by formula A according to the present application were taken and placed for 30 days respectively under conventional condition (sealed and placed in a dark place at 25° C.), high-temperature condition (sealed and placed in a dark place at 60° C.) and accelerated condition (opened and placed in a dark place at 40° C.-75% relative humidity) to study crystal form stability.

[6] = Hygroscopicity by DVS; type: physicochemical; conditions: relative humidity 20%-80%; for Moisture uptake: DVS; for Appearance: after DVS
Procedure: Dynamic Vapor Sorption (DVS) data and isothermal sorption analysis data were collected with TA Instruments Q5000 TGA. The detection method used was as follows: 1-10 mg of a sample was placed in a platinum crucible, and weight change with the change of relative humidity from 20% to 80% was detected.

[7] = Solubility of sodium salt in water (water gradually added until clear); type: physicochemical; conditions: thermodynamic from solid; in water at 25° C.; deionized water gradually added, ultrasonication to clear solution
Procedure: The solubility of the sample in water was calculated.

[8] = Storage stability of sodium salt crystal form, 4 months; type: physicochemical; conditions: room temperature, relative humidity 10%-90%
[9] = Thermal stability, decomposition temperature by TGA; type: physicochemical
Procedure: Thermogravimetric Analysis (TGA) data were collected with TA Instruments Q500 TGA. The detection method used was as follows: 5-15 mg of a samples was placed in a platinum crucible, and a segmented high-resolution detection method was adopted in which the temperature of the sample was increased from room temperature to 300° C. at a heating rate of 10° C./min under the protection of 40 mL/min dry N2.

SMILES	Crystal form after stirring suspension ([4]; Acetone, 3 days)	Crystal form after stirring suspension ([4]; Ethanol, 3 days)	Crystal form after stirring suspension ([4]; Isopropanol, 3 days)	Crystal form after stirring suspension ([4]; Water, 3 days)	Crystal form after stirring suspension ([4]; Water:acetone = 1:1, 3 days)	Crystal form after stirring suspension ([4]; Water:acetone = 1:5, 3 days)	Crystal form after stirring suspension ([4]; Water:acetone = 1:10, 3 days)	Crystal form after stirring suspension ([4]; Water:acetone = 1:100, 3 days)	Crystal form after stirring suspension ([4]; Water:ethanol = 1:1, 3 days)	Crystal form after stirring suspension ([4]; Water:ethanol = 1:5, 3 days)	Crystal form after stirring suspension ([4]; Water:ethanol = 1:10, 3 days)	Crystal form after stirring suspension ([4]; Water:ethanol = 1:100, 3 days)	Stability of crystal form in aqueous systems [4]	Solubility [2] [µg/mL]	Appearance, XRPD pattern and melting point after storage [5]	Moisture uptake [6] [%]	Appearance [6]	further results
CC(C)Cc1ccc(-c2nc(-c3ccc(CN4CC(C(=O)O)C4)c(F)c3)no2)cc1 [1-{2-fluoro-4-[5-(4-isobutylphenyl)-1,2,4-oxadiazole-3-yl]benzyl}-3-azetidinecarboxylic acid]																		Final crystal form ([1]; Acetone): Crystal form IV; Final crystal form ([1]; Ethanol): Crystal form IV; Final crystal form ([1]; Isopropanol): Crystal form IV; Final crystal form ([1]; Water:acetone = 1:1): Crystal form I; Final crystal form ([1]; Water:acetone = 1:5): Crystal form I; Final crystal form ([1]; Water:acetone = 1:10): Crystal form I; Final crystal form ([1]; Water:acetone = 1:100): Crystal form I; Final crystal form ([1]; Water:ethanol = 1:1): Crystal form I; Final crystal form ([1]; Water:ethanol = 1:5): Crystal form I; Final crystal form ([1]; Water:ethanol = 1:10): Crystal form I; Final crystal form ([1]; Water:ethanol = 1:100): Crystal form I; Final crystal form ([1]; Water): Crystal form I; Solubility ([2]; listed as compound represented by formula A): 1.1 µg/mL; Most stable crystal form ([3]; in an organic solvent): crystal form IV; Most stable crystal form ([3]; in water): crystal form I
CC(C)Cc1ccc(-c2nc(-c3ccc(CN4CC(C(=O)O)C4)c(F)c3)no2)cc1.O=C(O)/C=C\C(=O)O [maleate of 1-{2-fluoro-4-[5-(4-isobutylphenyl)-1,2,4-oxadiazole-3-yl]benzyl}-3-azetidinecarboxylic acid]	No change	No change	No change	No change	No change	No change	No change	No change	No change	No change	No change	No change	stable	16.1	unchanged	0.4	Powder	solubility at 2 h ([2]; deionized water, 25 °C, water, thermodynamic from solid): 16 µg/mL
CC(C)Cc1ccc(-c2nc(-c3ccc(CN4CC(C(=O)[O-])C4)c(F)c3)no2)cc1.[Na+] [sodium salt of 1-{2-fluoro-4-[5-(4-isobutylphenyl)-1,2,4-oxadiazole-3-yl]benzyl}-3-azetidinecarboxylic acid]	No change	No change	No change	No change	No change	No change	No change	No change	No change	No change	No change	No change	stable					Solubility [7]: 10000 µg/mL; Appearance, XRPD pattern and melting point after storage [8]: unchanged; Decomposition temperature [9]: 275 °C
CC(C)Cc1ccc(-c2nc(-c3ccc(CN4CC(C(=O)O)C4)c(F)c3)no2)cc1 [sulfate of 1-{2-fluoro-4-[5-(4-isobutylphenyl)-1,2,4-oxadiazole-3-yl]benzyl}-3-azetidinecarboxylic acid]	No change	No change	No change	No change	No change	No change	No change	No change	No change	No change	No change	No change	stable	19.2	unchanged	0.7	Powder	Solubility ([2]; listed as sulfate of the compound represented by formula A): 19 µg/mL

— US11512078B2, “Addition salt of S1P1 receptor agonist and crystal form thereof, and pharmaceutical composition” (SUZHOU CONNECT BIOPHARMACEUTICALS, LTD., priority 2018, dated 2022)
